The term viability denotes a read-out of living cells in per cent, often relative to untreated cells.

A short description of this data set: in vitro. Particulars: human, hek293t cells.
As to `C=CC(=O)Nc1cccc(OC(C)(C)C)c1` [3-G14, N-[3-(tert-butoxy)phenyl]prop-2-enamide], the viability at 48 h, 25 µM was found to be 85.8%.

As to `C=CC(=O)N1CCCC(NS(=O)(=O)c2cccc(F)c2)C1` (stereo not drawn) [3-G15, 3-fluoro-N-[1-(prop-2-enoyl)piperidin-3-yl]benzene-1-sulfonamide], the viability at 48 h, 25 µM worked out at 58%.

For `C=CC(=O)NCC1=NOCC1` [3-G16, N-[(4,5-dihydro-1,2-oxazol-3-yl)methyl]prop-2-enamide], the viability at 48 h, 25 µM was found to be 104%.

Turning to `C=CC(=O)NCc1ccc(C(=O)N2CCN(C(C)=O)CC2)cc1` [3-G17, N-{[4-(4-acetylpiperazine-1-carbonyl)phenyl]methyl}prop-2-enamide], the viability at 48 h, 25 µM stood at 32.9%.

Consider `C=CC(=O)NCCC(=O)N1CCSC(C)(C)C1` [3-G18, N-[3-(2,2-dimethylthiomorpholin-4-yl)-3-oxopropyl]prop-2-enamide], for which the viability at 48 h, 25 µM stood at 101%.

On to `C=CC(=O)NCCC(=O)N1CCC(C)(C)S(=O)(=O)CC1` [3-G19, N-[3-(7,7-dimethyl-1,1-dioxo-1lambda6,4-thiazepan-4-yl)-3-oxopropyl]prop-2-enamide], for which the viability at 48 h, 25 µM amounted to 41.2%.

In the case of `C=CC(=O)NCC1CCN(Cc2ccccc2)CC1C` (stereo not drawn) [3-G20, N-[(1-benzyl-3-methylpiperidin-4-yl)methyl]prop-2-enamide], the viability at 48 h, 25 µM came to 94.1%.

`C=CC(=O)N1CCCC(CNS(=O)(=O)C2CC2)C1` (stereo not drawn) [3-G21, N-{[1-(prop-2-enoyl)piperidin-3-yl]methyl}cyclopropanesulfonamide]: the viability at 48 h, 25 µM worked out at 50.6%.

In the case of `C=CC(=O)NCCc1nnc(C)s1` [3-G22, N-[2-(5-methyl-1,3,4-thiadiazol-2-yl)ethyl]prop-2-enamide], the viability at 48 h, 25 µM was 78.3%.

Consider `C=CC(=O)N1CCC(C(=O)NCc2cc(C)c[nH]c2=O)CC1` [3-H03, N-[(5-methyl-2-oxo-1,2-dihydropyridin-3-yl)methyl]-1-(prop-2-enoyl)piperidine-4-carboxamide], for which the viability at 48 h, 25 µM was found to be 81.3%.

With `C=CC(=O)N1CCC(C(=O)OCC)(S(C)(=O)=O)CC1` [3-H04, ethyl 4-methanesulfonyl-1-(prop-2-enoyl)piperidine-4-carboxylate], the viability at 48 h, 25 µM worked out at 93.3%.

Consider `C=CC(=O)N1CCC(C(=O)NCc2ncccc2OC)CC1` [3-H05, N-[(3-methoxypyridin-2-yl)methyl]-1-(prop-2-enoyl)piperidine-4-carboxamide], for which the viability at 48 h, 25 µM turned out to be 73.5%.

`C=CC(=O)Nc1ccc(N(C)S(=O)(=O)CC)cc1` [3-H06, N-[4-(N-methylethanesulfonamido)phenyl]prop-2-enamide]: the viability at 48 h, 25 µM turned out to be 87.8%.

For the compound `C=CC(=O)N1CCC(C(=O)NC2(CO)CCSCC2)CC1` [3-H07, N-[4-(hydroxymethyl)thian-4-yl]-1-(prop-2-enoyl)piperidine-4-carboxamide], the viability at 48 h, 25 µM is 67.5%.

For the compound `C=CC(=O)N(C)CC(=O)Nc1ccc(N2C[C@@H](C)O[C@@H](C)C2)cc1` [3-H08, N-[({4-[(2R,6S)-2,6-dimethylmorpholin-4-yl]phenyl}carbamoyl)methyl]-N-methylprop-2-enamide], the viability at 48 h, 25 µM turned out to be 94.9%.

`C=CC(=O)N1CCOC(c2nccs2)C1` (stereo not drawn) [3-H09, 1-[2-(1,3-thiazol-2-yl)morpholin-4-yl]prop-2-en-1-one]: the viability at 48 h, 25 µM was determined as 69.4%.

Take `C=CC(=O)Nc1ccccc1-n1nccn1` [3-H10, N-[2-(2H-1,2,3-triazol-2-yl)phenyl]prop-2-enamide]: the viability at 48 h, 25 µM is 73.2%.

On to `C=CC(=O)NCc1ncnn1-c1ccccc1` [3-H11, N-[(1-phenyl-1H-1,2,4-triazol-5-yl)methyl]prop-2-enamide], for which the viability at 48 h, 25 µM is 63.1%.

`C=CC(=O)N1CCC(C(=O)NC2(Cc3ccccc3)CCCC2)CC1` [3-H12, N-(1-benzylcyclopentyl)-1-(prop-2-enoyl)piperidine-4-carboxamide]: the viability at 48 h, 25 µM came out at 83.4%.

For `C=CC(=O)NC1(c2nc(C3CC3)cc(=O)[nH]2)CCCCC1` [3-H13, N-[1-(4-cyclopropyl-6-oxo-1,6-dihydropyrimidin-2-yl)cyclohexyl]prop-2-enamide], the viability at 48 h, 25 µM turned out to be 68.3%.

As for `C=CC(=O)Nc1ccc2occc2c1` [3-H14, N-(1-benzofuran-5-yl)prop-2-enamide], the viability at 48 h, 25 µM worked out at 99.9%.

As for `C=CC(=O)NCc1noc(-c2cccs2)n1` [3-H15, N-{[5-(thiophen-2-yl)-1,2,4-oxadiazol-3-yl]methyl}prop-2-enamide], the viability at 48 h, 25 µM was 93.9%.

Regarding `C=CC(=O)NCc1ccc(-n2ccc(C)n2)nc1` [3-H16, N-{[6-(3-methyl-1H-pyrazol-1-yl)pyridin-3-yl]methyl}prop-2-enamide], the viability at 48 h, 25 µM came to 99.7%.

Consider `C=CC(=O)Nc1ccccc1C(=O)N(C)C(C)C` [3-H17, N-methyl-2-(prop-2-enamido)-N-(propan-2-yl)benzamide], for which the viability at 48 h, 25 µM came out at 66.9%.

In the case of `C=CC(=O)N1CCS(=O)(=O)N2CCCC12` (stereo not drawn) [3-H18, 1-(prop-2-enoyl)-hexahydro-1H-4lambda6-pyrrolo[1,2-b][1,2,4]thiadiazine-4,4-dione], the viability at 48 h, 25 µM amounted to 93.3%.

`C=CC(=O)NCCCN1CCCS1(=O)=O` [3-H19, N-[3-(1,1-dioxo-1lambda6,2-thiazolidin-2-yl)propyl]prop-2-enamide]: the viability at 48 h, 25 µM amounted to 88.4%.

As for `C=CC(=O)NC(c1ccc(F)cc1)C1CC1` (stereo not drawn) [3-H20, N-[cyclopropyl(4-fluorophenyl)methyl]prop-2-enamide], the viability at 48 h, 25 µM was determined as 89.2%.

`C=CC(=O)NCc1ccnn1C1CCCC1` [3-H21, N-[(1-cyclopentyl-1H-pyrazol-5-yl)methyl]prop-2-enamide]: the viability at 48 h, 25 µM was 74.5%.

`C=CC(=O)NCc1ccccc1S(=O)(=O)N1CCOCC1` [3-H22, N-{[2-(morpholine-4-sulfonyl)phenyl]methyl}prop-2-enamide]: the viability at 48 h, 25 µM was 89.1%.

For `C=CC(=O)Nc1cnn(-c2ccccc2)c1C(F)F` [3-I03, N-[5-(difluoromethyl)-1-phenyl-1H-pyrazol-4-yl]prop-2-enamide], the viability at 48 h, 25 µM was 41.7%.

Take `C=CC(=O)NCc1ccc(C(=O)N2CCNC(=O)CC2)cc1` [3-I04, N-{[4-(5-oxo-1,4-diazepane-1-carbonyl)phenyl]methyl}prop-2-enamide]: the viability at 48 h, 25 µM came out at 93.2%.

On to `C=CC(=O)N(CC)Cc1cccc2c1OCO2` [3-I05, N-[(1,3-dioxaindan-4-yl)methyl]-N-ethylprop-2-enamide], for which the viability at 48 h, 25 µM was 47.8%.

For `C=CC(=O)NCc1ccc(C(=O)N2CCCC23CCOC3=O)cc1` (stereo not drawn) [3-I06, N-[(4-{6-oxo-7-oxa-1-azaspiro[4.4]nonane-1-carbonyl}phenyl)methyl]prop-2-enamide], the viability at 48 h, 25 µM was determined as 88.5%.

Regarding `C=CC(=O)N1CCC(c2noc3cc(F)ccc23)CC1` [3-I07, 1-[4-(6-fluoro-1,2-benzoxazol-3-yl)piperidin-1-yl]prop-2-en-1-one], the viability at 48 h, 25 µM was 48.2%.

As for `C=CC(=O)N(CC)CC(=O)N1CCCC(N2CCCS2(=O)=O)C1` (stereo not drawn) [3-I08, N-{2-[3-(1,1-dioxo-1lambda6,2-thiazolidin-2-yl)piperidin-1-yl]-2-oxoethyl}-N-ethylprop-2-enamide], the viability at 48 h, 25 µM amounted to 91.2%.

Turning to `C=CC(=O)N(C)Cc1cc2ccccc2o1` [3-I09, N-[(1-benzofuran-2-yl)methyl]-N-methylprop-2-enamide], the viability at 48 h, 25 µM amounted to 47.1%.

The values above are taken from article PMC11995724, “Antibiotic target discovery by integrated phenotypic and activity-based profiling of electrophilic fragments” (Cell chemical biology, 2025).
